# Measurements reported in patent US20060052356A1, “Pharmacological methods to modulate oxygen consumption” (priority 2004, published 2006).
# Legend:
# Sprague Dawley rats = assay: Toxicity and mortality in anesthetized rats given protein synthesis inhibitors (Example 3)
# protein synthesis = assay: 35S-methionine incorporation into tissue protein after i.v. protein synthesis inhibitor in anesthetized rats (Example 3); assay type: in vivo, Sprague Dawley rats
compound,measurement,setting,value
C[C@H]1c2cccc(O)c2C(=O)C2=C(O)[C@]3(O)C(=O)C(C(N)=O)=C(O)[C@@H](N(C)C)[C@@H]3[C@@H](O)[C@@H]21 [Doxycycline],mortality,Sprague Dawley rats; at doses <1/3 of LD50,~66%
COc1ccc(C[C@H]2NC[C@H](O)[C@H]2OC(C)=O)cc1 [anisomycin],inhibition of protein synthesis (in words),"protein synthesis; rat, in vivo, iv",substantial inhibition
COc1ccc(C[C@H](N)C(=O)N[C@H]2[C@@H](O)[C@H](n3cnc4c(N(C)C)ncnc43)O[C@@H]2CO)cc1 [puromycin],inhibition of protein synthesis (in words),"protein synthesis; single agents, intravenous",substantial inhibition
O=c1c(-c2ccc(O)cc2)coc2cc(O)cc(O)c12 [Genistein],inhibition of protein synthesis (in words),"protein synthesis; single agents, intravenous",poor inhibitor
same,toxicity,"Sprague Dawley rats; rat, in vivo",toxicity at low doses
